# From patent US10363239B2, “Method for inhibiting growth of cancer cells” (Pain Therapeutics, Inc., priority 2013, dated 2019)
# What was measured:
# Assay type in all cases: cell-based, human
# [1] = test system: pS2448mTOR, pS473Akt, pY/pT-ERK2 in melanoma cells; test: Activated (phosphorylated) mTOR, Akt and ERK2 levels (immunoprecipitation, Western blotting); details: 0.1-5 nM; 4 days
# Experimental: FIG. 11A through FIG. 11C illustrate the effect of contact with Compound C0105 on the levels of activated (phosphorylated) mTOR (pS^2448mTOR), Akt (pS^473Akt) and ERK2 (pY/pT-ERK2) in melanoma cells. Cells were treated with vehicle and 0.1-5 nM Compound C0105 for 4 days. Cells were washed, solubilized and the resultant cell lysate was immunoprecipitated with anti-mTOR, -Akt or -ERK2. The levels of pS^2448mTOR, pS^473Akt, pY/pTERK2 in the respective anti-mTOR, -Akt, and -ERK2 immunoprecipitates were determined by Western blotting. The density of protein bands was measured by densitometric scanning. […] N=4. *p<0.01 compared to vehicle (open bars). […]
# (§1) The cell lysates were diluted 5-fold with immunoprecipitation buffer and immunoprecipitated with anti-FLNA, -Akt, -mTOR and -ERK2 as described previously [Talbot et al., J Clin Inv 122(4):1-23 (2012); Wang et al., J Neurosci 32(29):9773-9784 (2012)]. The levels of FLNA linkages, activated phosphorylated Akt (pS^473 and pT^308), phosphorylated mTOR (pS^2448) and phosphorylated ERK2 (pY/pT) were determined in anti-FLNA, -Akt, -mTOR and -ERK2 immunoprecipitates by Western blotting with appropriate antibodies directed against PTEN, PP2A, K-RAS, ras-GAP (FLNA linkages), pS^473Akt, pT^308Akt, pS^2448mTOR and pY/pT ERK2 (activation of Akt, mTOR and ERK2).
# [2] = test system: pS2448mTOR, pS473Akt, pY/pT-ERK2 in primary lung fibroblast cells; test: as above; details: 0.1-5 nM; 4 days
# Experimental: (§2) Cells were treated with vehicle and 0.1-5 nM C0105 for 4 days. Cells were washed, solubilized and the resultant cell lysate was immunoprecipitated with anti-mTOR, -Akt or -ERK2. The levels of pS^2448mTOR, pS^473Akt, pY/pTERK2 in the respective anti-mTOR, -Akt, and -ERK2 immunoprecipitates were determined by Western blotting. […] The density of protein bands was measured by densitometric scanning. […] N=4. *p<0.01 compared to vehicle (open bars). […]
# as §1
# [3] = test system: pS2448mTOR, pS473Akt, pY/pT-ERK2 in small-cell lung carcinoma cells; test: as above; details: 0.1-5 nM; 4 days
# Experimental: as §2, §1
# [4] = test system: pS2448mTOR, pS473Akt, pY/pT-ERK2 in HMEC; test: as above; details: 0.1-5 nM; 4 days
# Experimental: (§3) Cells were treated with vehicle and 0.1-5 nM C0105 for 4 days. Cells were washed, solubilized and the resultant cell lysate was immunoprecipitated with anti-mTOR, -Akt or -ERK2. The levels of pS^2448mTOR, pS^473Akt, pY/pTERK2 in the respective anti-mTOR, -Akt, and -ERK2 immunoprecipitates were determined by Western blotting (not shown). The density of protein bands was measured by densitometric scanning. […] FIGS. 13C and 13G and FIGS. 13D and 13H show similarly obtained data for immunoprecipitates from HMEC and HPEC cells, respectively. Cell treatments and data handling were as discussed in FIG. 12.
# (§4) To study the effect of Compound C0105 on pS^2152FLNA levels, FLNA linkages to key regulators including protein phosphatases as well as activated Akt (pS^473-, pT^308-Akt), mTOR ([…]) and ERK (pY/pT-ERK) levels, the cancer and normal cells were cultured to approximately 90% confluency and treated with vehicle or varying concentrations of Compound C0105. The cells were washed with warm phosphate-buffered saline (PBS), pH 7.2, dissociated, homogenized by sonication and solubilized using 0.5% NP-40 (nonoxynol 40), 0.2% sodium cholate and 0.5% digitonin for 1 hour at 4° C.
# as §1
# [5] = test system: pS2448mTOR, pS473Akt, pY/pT-ERK2 in HPEC; test: as above; details: 0.1-5 nM; 4 days
# Experimental: as §3, §4, §1
# [6] = test system: pS2448mTOR, pS473Akt, pY/pT-ERK2 in HTB-22 cells; test: as above; details: 0.1-5 nM; 4 days
# Experimental: as §3, §4, §1
# [7] = test system: pS2448mTOR, pS473Akt, pY/pT-ERK2 in MiaPaCa2 cells; test: as above; details: 0.1-5 nM; 4 days
# Experimental: as §3, §4, §1
# [8] = test system: GTP-bound K-ras in BxPc3 cells; test: Active K-ras (GTP-bound K-ras) Raf1 RBD pull-down assay; details: 0.1, 0.5, 1 and 5 nM; 4-day treatment
# Experimental: (§5) FIGS. 31A and 31B illustrate the effects of illustrative Compound C0105 on levels of active K-ras (GTP-bound K-ras), assessed using the agarose bead-bound Raf1 RBD pull-down assay in melanoma, two different pancreatic cancerous cell lines (MiaPaCa2 and BxPc3) and a glioblastoma cell line (U87). The cells were treated (contacted) with zero (vehicle), 0.1, 0.5, 1 and 5 nM Compound C0105 as previously discussed. The thus obtained GTP-bound K-ras was subjected to Western blotting using anti-ras antibodies for identification, the blot densities determined and statistically analyzed as discussed previously.
# (§6) In a separate series of studies, the level of active K-RAS (GTP-bound K-RAS) was determined by precipitation using Raf RBD-conjugated agarose beads from 100 μg of lysates of cancer cells (prepared as described above) following 4-day treatment with varying concentrations of Compound C0105. To ascertain even loading, actin in the cell lysates was immunoprecipitated with goat anti-actin. The precipitates were collected by centrifugation, washed and the active K-RAS and actin eluted by boiling for 5 min in 1×SDS-PAGE. The levels of active K-RAS and actin in 50 μg of cell lysates were size-fractionated on 12% SDS-PAGE, electrophorectically transferred to nitrocellulose membranes and determined by Western blotting with specific monoclonal antibodies against K-RAS and actin.
# [9] = test system: GTP-bound K-ras in MiaPaCa2 cells; test: as above; details: 0.1, 0.5, 1 and 5 nM; 4-day treatment
# Experimental: as §5, §6
# [10] = test system: GTP-bound K-ras in glioblastoma cell line (U87); test: as above; details: 0.1, 0.5, 1 and 5 nM; 4-day treatment
# Experimental: as §5, §6
# [11] = test system: GTP-bound K-ras in melanoma cells; test: as above; details: 0.1, 0.5, 1 and 5 nM; 4-day treatment
# Experimental: as §5, §6
smiles,measurement,setting,value
CN1CCC2(CC1)NCC(=O)N2Cc1ccccc1 [Compound C0105],"mTOR, Akt and ERK activation (phosphorylated mTOR, Akt and ERK)",[1],"robustly reduces mTOR, Akt and ERK activation"
same,"mTOR, Akt and ERK activation (phosphorylated mTOR, Akt and ERK)",[2],"little effect on mTOR, Akt and ERK activation"
same,"mTOR, Akt and ERK activation (phosphorylated mTOR, Akt and ERK)",[3],"robustly reduces mTOR, Akt and ERK activation"
same,"mTOR, Akt and ERK activation (phosphorylated mTOR, Akt and ERK)",[4],"has little effect on mTOR, Akt and ERK activation"
same,"mTOR, Akt and ERK activation (phosphorylated mTOR, Akt and ERK)",[5],"has little effect on mTOR, Akt and ERK activation"
same,"mTOR, Akt and ERK activation (phosphorylated mTOR, Akt and ERK)",[6],"has little effect on mTOR, Akt and ERK activation"
same,"mTOR, Akt and ERK activation (phosphorylated mTOR, Akt and ERK)",[7],"has little effect on mTOR, Akt and ERK activation"
same,GTP-bound K-ras (active K-ras) level,[8],reduced GTP-bound K-ras
same,GTP-bound K-ras (active K-ras) level,[9],reduced GTP-bound K-ras
same,GTP-bound K-ras (active K-ras) level,[10],reduced GTP-bound K-ras
same,GTP-bound K-ras (active K-ras) level,[11],reduced GTP-bound K-ras
